How the values were obtained:
[1] = target: TEAD3 (Homo sapiens, UniProt Q99594); details: thermal shift, reported data of Tang and Post; cited from earlier work
[2] = target: TEAD4 (Homo sapiens, UniProt Q15561); details: cited from earlier work
[3] = target: TEAD2 (Homo sapiens, UniProt Q15562); details: thermal shift, reported data of Tang and Post; cited from earlier work
[4] = target: TEAD1 (Homo sapiens, UniProt P28347); details: cited from earlier work
[5] = tested on: NCI-H226 cells; assay: Proliferation, Cell Titer One assay; assay type: cell-based; details: 6 days
Procedure: (§1) Cell proliferation of a TEAD dependent NF2-null mesothelioma cell line, NCI-H226, and a TEAD-non-dependent mesothelioma cell line, NCI-H28 was assayed using two different protocols: • a) CellTiter-Glo 2.0 (Promega #G9243). The effect of the TEAD inhibitors disclosed herein on cell proliferation was determined in TEAD1-genetically dependent cell line NCI-H226 (responder cell line) and TEAD-independent cell lines (NCI-H23, HEK293T), as non-responder, negative control. Cells were seeded in 96-well plates (Thermo Scientific #167008) in growth media (RPMI-1640, Gibco #61870-010) for NCI-H226 and NCI-H23 or DMEM (Gibco #31966-021, HEK293T) with 10% Heat Inactivated Fetal Bovine Serum (Gibco 10500-064) at 800 (NCI-H226 and HEK-293T) or 2000 (NCI-H23) cells per well at 37° C., 5% CO2, humidified incubator; 24 hours later, fresh growth media containing test compound or DMSO vehicle was added and incubated with the cells for 144 hrs. TEAD inhibitor stocks were made at a 1000× fold excess in DMSO, and a dose response test compound dose range of 10,000 to 0.1 nM was used. Each treatment was carried out in triplicate. After 144 hrs of treatment, relative cell viability numbers were determined using the CellTiter-Glo 2.0 assay following the manufacturer's instructions. Test plates and CellTiter-Glo 2.0 reagent were allowed to equilibrate to room temperature. CellTiter-Glo 2.0 reagent was added at 1:1 reagent to media ratio to the 96-well cell plates, plates were placed on a plate shaker for 2 minutes and then incubated at room temperature for a further 10 minutes to allow complete cell lysis to occur. The mix was then transferred to white, 96-well luminometer assay plates (Greiner Bio One #655075). Luminescence was quantified using a CLARIOStar Plus multi-mode plate reader (BMG Labtech) in luminescence detection mode with the recommended settings (ultra-Glo pre-set: emission 545-50 nm with autofocus and enhanced dynamic range on). Relative cell density was expressed as a function of inhibitor concentration, with respect to DMSO-only control wells. Data where plotted using GraphPad Prism and IC50 values for the biological effect were calculated using the EC50 non-linear fit function using a sigmoidal, 4-parameter logistic, least squares fit with no constraints. • b) Cell Titer One (Promega, #G3582). The effect of the TEAD inhibitors disclosed herein on cell proliferation was also determined using the Promega Substrate Cell Titer Aqueous One Solution Reagent. The TEAD inhibitors were evaluated for the effects on cell proliferation responder (H226) and non-responder negative control cancer cell lines (CAMA1, H28), as well as non-transformed normal human cells (HUVEC, NHDF). Dissociated cells were resuspend in media (depending on cell line, either in DMEM, RPMI, or EMEM all with 10% FBS, with gentamicin as an antibiotic). Cells were seeded at 100 μL/well at 750 cells per well in 96-well plates and allowed to settle and attach. After an incubation of 24 hrs (37° C., 5% CO2, humidified incubator), 100 μL of test compound-containing media was added. A dilution series of 2000× concentrated stock of test compounds was prepared in DMSO, for final concentrations from 0.1 to 10,000 nM. After addition of test compound-containing media, cells were incubated for 6 days at 37° C., 5% CO2, humidified incubators). To measure cell density, 20 μL of Promega Substrate Cell Titer 96 Aqueous One Solution Reagent (Promega, #G3582) to each well was added according to the manufacturer's instructions. Plates were incubated at 37° C. for usually 3-8 hrs, to reach in the control cells (without compound) an OD of 1.5 at 490 nm. The OD was measured using Vmax [Molecular Devices] spectrophotometer plate reader. Media only-wells were used as background controls and cell densities normalized to DMSO vehicle control. ECs were taken as the concentration achieving 50% of maximal growth inhibition.

[6] = tested on: NCI-H28 cells; assay: Proliferation, Cell Titer One assay; assay type: cell-based; details: 6 days
Procedure: as §1

[7] = tested on: NCI-H226 cells; assay: Proliferation and cell viability, CellTiter-Glo 2.0 (CTG) assay; assay type: cell-based; details: H226-responder cell line, 144 hrs
Procedure: as §1

[8] = tested on: NCI-H23 cells; assay: as above; assay type: cell-based; details: 144 hrs
Procedure: as §1

[9] = tested on: TEAD/YAP promoter element in MCF7-Luc cells; assay: Cell-based TEAD-promoter transcriptional activity assay (MCF-7 TEAD luciferase); details: Homo sapiens, MCF7; MCF-7 TEAD luciferase assay, 24 hrs
Source text: Luciferase based TEAD-transcriptional cell-based reporter assay: To measure the effect of the TEAD inhibitors disclosed herein on TEAD transcriptional activity in cell-based systems, we employed a stable MCF7 cell line expressing luciferase under a consensus synthetic TEAD/YAP promoter element (MCF7-Luc, BPS Bioscience, Catalog #60618). This MCF7-TEAD-Luc cell line has been extensively validated with both genetic and pharmacological intervention, showing inhibition of luciferase expression and luminescence in response to ablation of the TEAD/YAP pathway. MCF7-Luc cells were plated at 10,000 cells per well in white 384-well plates and settled by a quick spin. The media was MEM (Gibco) supplemented with 10% fetal bovine serum (ExCell), selenium-transferrin-insulin mix (Gibco), 1× non-essential amino acids (Gibco) and sodium pyruvate (Gibco). Cells were allowed to attach and grow overnight (37° C., 5% CO2 in humidified incubator), and test compounds were added the next day. Compounds were dissolved at 1000× fold excess in DMSO and made into 2-fold serial dilution, and added to media at 30 μL of media per well. A DMSO-only well serves a vehicle control. The highest concentration of drug in media was 1,000 nM. Positive control compounds include K975 (pan-TEAD inhibitor) and negative control (Actinomycin). Cells were incubated for 24 hrs with test compounds and positive controls, after which time, the luminescence was measured by the One-Glo luciferase kit (Promega). 30 μL of One-Glo reagent was added to each well and shaken for 8 minutes to lyse the cells. The plates were centrifugated at 1000 RPM for 1 minute to settle all liquid in the well and eliminate bubbles. Luminescence was quantified using an ENVision plate reader (Perkin Elmer). Percent inhibition of luminescence by test compound was expressed as a function of test compound concentration, with the no-test compound DMSO only wells serving as baseline. EC50 values for each compound were calculated with a non-linear asymptotic line fit.

[10] = thermal shift assays of Tang and Post
[11] = thermal shift, reported data of Tang and Post
[12] = Homo sapiens, NCI-H23, H23-non-responder cell line

Sequence of TEAD4 (Q15561 whole entry): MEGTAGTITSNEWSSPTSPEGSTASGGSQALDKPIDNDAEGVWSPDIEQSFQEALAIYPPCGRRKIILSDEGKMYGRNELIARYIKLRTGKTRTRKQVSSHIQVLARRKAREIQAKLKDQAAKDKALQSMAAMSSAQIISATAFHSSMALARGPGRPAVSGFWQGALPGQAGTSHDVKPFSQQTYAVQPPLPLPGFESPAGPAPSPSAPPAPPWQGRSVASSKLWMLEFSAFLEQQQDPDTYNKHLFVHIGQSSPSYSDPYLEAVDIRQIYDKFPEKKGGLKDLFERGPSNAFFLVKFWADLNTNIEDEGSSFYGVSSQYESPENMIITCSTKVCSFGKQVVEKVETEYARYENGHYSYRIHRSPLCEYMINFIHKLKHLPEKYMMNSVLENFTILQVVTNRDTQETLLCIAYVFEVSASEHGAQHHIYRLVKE
Sequence of TEAD1 (P28347 whole entry): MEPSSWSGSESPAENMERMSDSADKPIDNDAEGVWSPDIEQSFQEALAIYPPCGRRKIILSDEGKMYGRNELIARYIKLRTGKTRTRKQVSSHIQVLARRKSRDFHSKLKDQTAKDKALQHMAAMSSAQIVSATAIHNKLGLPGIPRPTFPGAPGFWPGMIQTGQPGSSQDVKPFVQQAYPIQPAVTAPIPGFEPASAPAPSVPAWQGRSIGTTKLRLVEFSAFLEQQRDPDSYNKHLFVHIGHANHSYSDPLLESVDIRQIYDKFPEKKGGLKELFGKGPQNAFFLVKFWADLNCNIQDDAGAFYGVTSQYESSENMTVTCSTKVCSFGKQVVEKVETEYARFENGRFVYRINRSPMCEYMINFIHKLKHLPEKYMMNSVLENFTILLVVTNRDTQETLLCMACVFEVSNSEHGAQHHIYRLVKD
Sequence of TEAD3 (Q99594 whole entry): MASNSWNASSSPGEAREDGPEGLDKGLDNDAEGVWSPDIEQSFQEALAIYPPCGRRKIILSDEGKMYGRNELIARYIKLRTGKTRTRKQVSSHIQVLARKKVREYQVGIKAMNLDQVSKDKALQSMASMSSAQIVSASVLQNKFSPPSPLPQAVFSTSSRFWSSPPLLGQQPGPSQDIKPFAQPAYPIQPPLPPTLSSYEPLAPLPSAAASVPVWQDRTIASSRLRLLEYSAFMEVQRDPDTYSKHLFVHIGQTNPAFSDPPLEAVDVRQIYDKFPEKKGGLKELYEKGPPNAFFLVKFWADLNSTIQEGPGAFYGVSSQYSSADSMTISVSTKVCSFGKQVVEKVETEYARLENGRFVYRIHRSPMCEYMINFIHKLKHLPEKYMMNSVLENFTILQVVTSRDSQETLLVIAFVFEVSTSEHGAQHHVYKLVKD
Sequence of TEAD2 (Q15562 whole entry): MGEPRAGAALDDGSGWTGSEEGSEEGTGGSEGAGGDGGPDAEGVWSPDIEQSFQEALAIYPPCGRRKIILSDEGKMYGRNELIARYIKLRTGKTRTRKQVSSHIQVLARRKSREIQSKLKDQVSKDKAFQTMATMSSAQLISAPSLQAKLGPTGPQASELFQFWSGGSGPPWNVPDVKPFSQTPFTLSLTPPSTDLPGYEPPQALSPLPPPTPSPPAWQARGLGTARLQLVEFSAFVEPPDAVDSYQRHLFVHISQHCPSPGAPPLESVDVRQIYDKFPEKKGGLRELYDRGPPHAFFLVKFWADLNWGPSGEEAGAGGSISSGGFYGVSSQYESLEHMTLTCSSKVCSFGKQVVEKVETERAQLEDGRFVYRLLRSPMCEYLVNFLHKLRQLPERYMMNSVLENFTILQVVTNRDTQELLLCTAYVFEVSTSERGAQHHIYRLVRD

Compound	IC50 ([5]; Homo sapiens, NCI-H226, 144 h) [nM]	IC50 ([6]; Homo sapiens, NCI-H28, 144 h) [nM]	IC50 ([7]; Homo sapiens, NCI-H226, 144 h) [nM]	IC50 [8, 12] [nM]	IC50 [5] [nM]	IC50 [6] [nM]	IC50 ([8]; H23-non-responder cell line) [nM]	IC50 [7] [nM]	also measured
C[C@H](CO)NC(=O)c1ccc2c(Oc3ccc(C(F)(F)F)cc3)cccc2c1 [VT3989]									TEAD3 ΔTm [1]: 8.5 °C; binding to TEAD4, in words [2, 10]: lower levels of binding to TEAD4; TEAD4 ΔTm [2, 11]: 4.6 °C; TEAD2 ΔTm [3]: 8.8 °C; interaction with TEAD isoforms, in words [4, 10]: primarily interacts with TEAD1-3; TEAD1 ΔTm [4, 11]: 11.6 °C
CS(=O)(=O)c1cnc2c(C3=CCC(C(F)(F)F)CC3)cccc2c1 (centres unmarked) [Compound 16, 3-(methylsulfonyl)-8-(4-(trifluoromethyl)cyclohex-1-en-1-yl)quinoline]	< 200	> 1000	< 200						
COC[C@H](C)NC(=O)c1cnc2c(C3=CCC(C(F)(F)F)CC3)cccc2c1 (stereo partly drawn) [Compound 6, N—((S)-1-methoxypropan-2-yl)-8-(4-(trifluoromethyl)cyclohex-1-en-1-yl)quinoline-3-carboxamide]	< 200	> 1000	< 200	> 1000					
CC(C)NC(=O)c1cnc2c(C3=CCC(C(F)(F)F)CC3)cccc2c1 (centres unmarked) [Compound 1, N-isopropyl-8-(4-(trifluoromethyl)cyclohex-1-en-1-yl)quinoline-3-carboxamide]	< 200	> 1000	< 200	> 1000					EC50 [9]: < 200 nM
C[C@H](NC(=O)c1cnc2c(C3=CC[C@@H](C(F)(F)F)CC3)cccc2c1)c1ncco1 (single isomer, unassigned) [Compound 21, N-(1-(oxazol-2-yl)ethyl)-8-(4-(trifluoromethyl)cyclohex-1-en-1-yl)quinoline-3-carboxamide]					200 to 1000	> 1000	> 1000	200 to 1000	
C[C@H](NC(=O)c1cnc2c(C3=CC[C@@H](C(F)(F)F)CC3)cccc2c1)c1ncco1 (single isomer, unassigned) [Compound 22, N-(1-(oxazol-2-yl)ethyl)-8-(4-(trifluoromethyl)cyclohex-1-en-1-yl)quinoline-3-carboxamide]					200 to 1000	> 1000	> 1000	< 200	
